Here are results for two compounds from patent publication EP0637237B1, “CALCIUM RECEPTOR-ACTIVE MOLECULES” (BRIGHAM AND WOMEN'S HOSPITAL, INC., priority 1993, dated 1994).

One assay deals with T1, C-cell Ca^2+ receptor (Rattus norvegicus, UniProt P48442).
T1 sequence (P48442 20-1079): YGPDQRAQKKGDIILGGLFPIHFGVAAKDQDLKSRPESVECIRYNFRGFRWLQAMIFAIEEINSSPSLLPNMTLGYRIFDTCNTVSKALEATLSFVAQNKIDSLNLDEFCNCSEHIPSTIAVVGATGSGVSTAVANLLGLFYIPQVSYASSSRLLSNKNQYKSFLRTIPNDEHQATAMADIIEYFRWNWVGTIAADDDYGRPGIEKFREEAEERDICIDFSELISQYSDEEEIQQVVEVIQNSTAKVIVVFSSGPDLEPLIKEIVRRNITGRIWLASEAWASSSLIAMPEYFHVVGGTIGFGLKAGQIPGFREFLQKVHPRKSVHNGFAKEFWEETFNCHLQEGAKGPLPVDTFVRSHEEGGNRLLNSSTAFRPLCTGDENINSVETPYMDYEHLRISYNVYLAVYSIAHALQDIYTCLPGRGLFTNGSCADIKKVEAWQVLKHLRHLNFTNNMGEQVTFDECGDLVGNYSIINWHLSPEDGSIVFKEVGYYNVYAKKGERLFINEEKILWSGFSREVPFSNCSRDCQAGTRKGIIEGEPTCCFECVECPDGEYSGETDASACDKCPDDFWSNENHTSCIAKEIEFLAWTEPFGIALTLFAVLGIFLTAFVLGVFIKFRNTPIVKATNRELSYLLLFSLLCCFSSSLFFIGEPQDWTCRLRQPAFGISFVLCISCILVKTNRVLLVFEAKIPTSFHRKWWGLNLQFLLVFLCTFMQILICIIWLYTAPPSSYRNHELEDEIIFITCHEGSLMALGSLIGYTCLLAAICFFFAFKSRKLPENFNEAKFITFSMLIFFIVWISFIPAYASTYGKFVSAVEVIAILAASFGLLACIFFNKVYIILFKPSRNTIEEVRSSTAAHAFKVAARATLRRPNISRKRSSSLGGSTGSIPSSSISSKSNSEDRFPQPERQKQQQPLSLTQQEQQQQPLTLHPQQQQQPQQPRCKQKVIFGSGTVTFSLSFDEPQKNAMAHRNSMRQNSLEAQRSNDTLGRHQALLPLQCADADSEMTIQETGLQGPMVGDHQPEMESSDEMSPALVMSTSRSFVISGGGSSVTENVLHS
The assay is classed as cell-based. Conditions: Table 6; rMTC 6-23 cells, fura-2; inactive = no increase in cytosolic Ca2+ at 1-5 mM.

Assay [1] is described as follows: Serum ionized Ca2+ in parathyroidectomized rats. The assay is classed as in vivo. Conditions: single dose 10 mg/kg i.p., over a period of 6 hours. The source says: To determine the primary target tissue upon which NPS 467 acts to cause a hypocalcemic response, the para thyroid glands in rats were surgically removed.
Assay [2] is described as follows: Serum or whole blood ionized Ca2+ and PTH in rats in vivo. More on the design: species or system Sprague-Dawley rats. The source says: Male Sprague-Dawley rates (200 g) were maintained on a low calcium diet for one week prior to receiving test substance or vehicle as control. Blood was collected from the tail vein three hours after the intra-peritoneal administration of NPS 467. […]

A short description of assay [3]: Serum ionized Ca2+ in the 5/6 nephrectomized rat (secondary hyperparathyroidism model). The assay is classed as in vivo, Sprague-Dawley rats. The settings on record: 10 mg/kg i.p. The source says:
An accepted and widely used animal model of secondary hyperparathyroidism arising from chronic renal failure is the 5/6 nephrectomized rat. […] Male Sprague-Dawley rats (250 g) received a 5/6 nephrectomy and were allowed to recover for 2 weeks. At this time they were normocalcemic (due to elevated levels of serum PTH).

Assay [4] has as its target T2, parathyroid cell Ca^2+ receptor (Bos taurus, UniProt P35384).
T2 sequence (P35384 20-1085): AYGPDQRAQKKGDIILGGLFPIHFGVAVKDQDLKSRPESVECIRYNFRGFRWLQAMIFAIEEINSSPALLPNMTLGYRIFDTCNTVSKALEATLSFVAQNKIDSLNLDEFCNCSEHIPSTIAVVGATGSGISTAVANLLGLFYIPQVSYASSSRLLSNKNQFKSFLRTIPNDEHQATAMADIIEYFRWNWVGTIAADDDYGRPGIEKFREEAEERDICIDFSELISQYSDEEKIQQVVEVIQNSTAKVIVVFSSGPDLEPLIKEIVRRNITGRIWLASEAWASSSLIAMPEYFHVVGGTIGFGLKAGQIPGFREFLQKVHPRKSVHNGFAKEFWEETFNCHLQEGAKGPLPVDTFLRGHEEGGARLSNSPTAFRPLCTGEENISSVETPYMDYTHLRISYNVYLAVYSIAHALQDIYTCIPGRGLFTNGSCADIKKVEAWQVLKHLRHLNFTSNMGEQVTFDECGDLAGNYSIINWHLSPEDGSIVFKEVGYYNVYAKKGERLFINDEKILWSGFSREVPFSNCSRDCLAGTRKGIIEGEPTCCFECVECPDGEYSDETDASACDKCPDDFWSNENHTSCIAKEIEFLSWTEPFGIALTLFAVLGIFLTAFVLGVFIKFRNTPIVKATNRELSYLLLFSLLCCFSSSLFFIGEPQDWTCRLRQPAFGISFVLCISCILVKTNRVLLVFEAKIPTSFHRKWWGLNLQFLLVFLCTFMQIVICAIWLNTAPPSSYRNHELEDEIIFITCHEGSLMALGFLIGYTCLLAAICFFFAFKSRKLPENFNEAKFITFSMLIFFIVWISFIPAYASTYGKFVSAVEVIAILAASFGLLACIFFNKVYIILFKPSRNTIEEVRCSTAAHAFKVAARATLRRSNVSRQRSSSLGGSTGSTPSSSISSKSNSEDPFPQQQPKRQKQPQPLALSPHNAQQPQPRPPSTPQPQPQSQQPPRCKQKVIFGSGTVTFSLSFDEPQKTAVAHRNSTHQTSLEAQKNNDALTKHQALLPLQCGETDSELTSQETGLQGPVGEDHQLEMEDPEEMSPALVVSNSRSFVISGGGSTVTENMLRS
The assay is classed as cell-based, bovine.

Where [5] appears, read: normal calcium-replete diet, 10 mg/kg i.p.

Read-outs that look alike come from different tables or passages of the source. Some results are limits rather than exact numbers.

For the compound `NCCCNCCCCNCCCNCCCN(O)CCCNC(=O)Cc1c[nH]c2cccc(O)c12` [NPS 015], on C-cell Ca^2+ receptor, the “EC50(µM) C-CELL” value is “inactive”.
For `COc1cccc([C@@H](C)NCCCc2ccccc2)c1` [NPS R-467], the “change in serum ionized Ca2+ levels” value in assay [1] is given as “did not cause any change in serum ionized Ca^2+ levels”. The “potency in lowering serum Ca2+ in vivo, enantiomers compared” value in assay [2] (each compound at 5 mg/kg body weight, Fig. 42) is reported as “more potent than the S-isomer in lowering serum Ca^2+ in vivo”. Also, the “time serum ionized Ca2+ remained depressed” value in assay [2] (setting [5]) is given as “up to 6 hours”. For the same compound, in assay [2] (setting [5]), the “time to maximal fall in serum ionized Ca2+” value was not above 1 h. Moreover, the “decrease in serum ionized Ca2+ from the control level” value in assay [2] (normal calcium-replete diet, single dose 10 mg/kg i.p., at 1 hr) is 22%. Moreover, the “time of the fall in serum ionized Ca2+” value in assay [3] is not above 2 h. In addition, in assay [3] (5/6 nephrectomy, 2 weeks recovery), the “serum ionized Ca2+ levels” value is listed as 83 % of controls. Moreover, the “[Ca2+]i response in Ca2+-free buffer” value in assay [4] (30 àM NPS R-467 alone, Ca2+-free buffer) is “no increase in [Ca^2+]i”. The “[Ca2+]i response in Ca2+-free buffer after neomycin” value in assay [4] (NPS R-467 30 µM added after 10 µM neomycin) was “elicited a transient increase in [Ca^2+]i”; in assay [4] (NPS R-467 30 µM added after 100 µM neomycin) it was “did not cause an increase in [Ca^2+]i”.
